Data as given in patent US12292445B2, “Methods of selecting subjects for treatment with metabolomic modulators” (priority 2018, dated 2025).

Tests used:
[1] = system: SPF Swiss Webster mice; test: 6-Hz psychomotor seizure assay; assay type: in vivo; conditions: SPF mice fed CD, oral gavage 13.3 mg/kg every 12 hours for 3 days, vs vehicle
Protocol: The 6-Hz test was conducted as previously described. […] All subsequent experimental cohorts contained male mice. One drop (˜50 ul) of 0.5% tetracaine hydrochloride ophthalmic solution was applied to the corneas of each mouse 10-15 min before stimulation. Corneal electrodes were coated with a thin layer of electrode gel (Parker Signagel). A constant-current current device (ECT Unit 57800, Ugo Basile) was used to deliver current at 3 sec duration, 0.2 ms pulse-width and 6 pulses/s frequency. CC50 (the intensity of current required to elicit seizures in 50% of the experimental group) was measured as a metric for seizure susceptibility. […] Locomotor behavior was recorded using Ethovision XT software (Noldus) and quantitative measures for falling, tail dorsiflexion (Straub tail), forelimb clonus, eye/vibrissae twitching and behavioral remission were scored manually. […] Latency to exploration (time elapsed from when an experimental mouse is released into the observation cage (after corneal stimulation) to its first lateral movement) was scored using Ethovision and manually with an electronic timer. […] Seizure threshold (CC50) was determined as previously described, using the average log interval of current steps per experimental group, where sample n is defined as the subset of animals displaying the less frequent seizure behavior. […]

[2] = system: Kcnal−/− mice; test: Kcnal seizure recordings (EEG); assay type: in vivo, mouse; conditions: CD-fed SPF Kcnal−/− mice, oral gavage 13.3 mg/kg every 12 hours
Protocol: EEGs were recorded from male and female Kcnal^−/− mice at 6-7 weeks of age. Kcnal^+/+ littermates were used as controls. There were no significant differences observed between males and females in seizure frequency and duration. Data presented include both sexes. Mice were anesthetized with isoflurane (5% induction, 2% maintenance) and eye ointment applied to each eye. Fur was removed along the head, and the area was cleaned with three alternative scrubs of chlorohexidine and 70% isopropanol. In a biosafety cabinet, mice were positioned in a stereotaxic apparatus (Harvard Biosciences) and 1 mg/kg lidocaine +1 mg/kg bupivacaine was applied locally along the incision site. […]
During EEG recordings, animals were freely moving and maintained on experimental diet. […] Simultaneous video recordings of behavioral seizures were correlated with EEG recordings and scored based on an adapted Racine scale and defined by 5 stages: 1) myoclonic jerk, 2) head stereotypy and facial clonus, 3) bilateral and alternating forelimb/hindlimb clonus, 4) rearing and falling, and 5) generalized tonic-clonic episodes. Data were analyzed by a blinded researcher using Neuroscore CNS Software (DSI). EEG signals were filtered using a 10 Hz high pass filter, and seizure events were detected by blinded manual scoring. […]

[3] = system: gamma-glutamyltranspeptidase (GGT); test: GGT activity assay, fecal samples exposed to GGsTop; assay type: biochemical, mouse; conditions: all fecal samples (SPF CD, SPF KD, AkkPb KD, AkkPb CD), 500 uM GGsTop
Protocol: GGT activity was measured as previously described. For anaerobic cultures, bacteria were seeded at 3×10^5 cfu/ml in CD- and KD-based media. 1 ml bacterial suspension was pelleted and frozen at −80° C. for 1 hr. Separate aliquots of the same suspension were plated in BHI mucin agar media or RCM and incubated at 37° C. in a Coy anaerobic chamber for later data normalization by bacterial cfu. Pellets were then resuspended in 250 ul lysis buffer (50 mM Tris-HCl with 1 ug/ml lysozyme) and incubated on ice for 30 min. For fecal samples, one pellet was weighed and homogenized in 1 ml lysis buffer. Bacterial and fecal suspensions were then sonicated (QSonica 125) and centrifuged at 12000×g for 10 min at 4° C. 20 ul supernatant was mixed with 180 ul substrate buffer (2.9 mM L-gamma-glutamyl-3-carboxy-4-nitroanilide (Gold Bio), 100 mM of glycylglycine (Sigma Aldrich), 100 mM Tris-HCl), and 500 uM GGsTop (if noted). Absorbance at 405 nm denoting production of 3-carboxy-4-nitroaniline was measured every minute for 1 hr at 37° C. using an automated multimode plate reader (Biotek Synergy H1).

[4] = system: gamma-glutamyltranspeptidase (GGT); test: GGT activity assay in cultured P. merdae; assay type: biochemical, Parabacteroides merdae; conditions: conventionally-cultured P. merdae, 500 uM GGsTop vs vehicle
Protocol: (§1) Cross-feeding was measured as previously described. A. muciniphila was embedded at 2×10^6 cfu/ml in 5 ml pre-reduced CD or KD-based liquid media supplemented with 1% agar at the bottom of an anaerobic tube, and P. merdae was overlaid above it at 6×10^6 cfu/ml in 5 ml pre-reduced M9 minimal media. Diet-based media were generated by aseptically suspending mouse KD vs. CD diets, described above, to 2 kcal/ml in M9 media. Pilot experiments confirmed no ectopic translocation of embedded A. muciniphila from the agar compartment into the above M9 liquid compartment. For each time point, aliquots were taken from the top and bottom compartments, plated in a dilution series in rich media (RCM for P. merdae and BHI +0.05% mucins for A. muciniphila), and colonies were counted. For GGsTop pre-treatment experiments, P. merdae was incubated with 500 uM GGsTop vs vehicle in RCM media at 37° C. for 2 hours and then washed with sterile media.
GGT activity was measured as previously described. For anaerobic cultures, bacteria were seeded at 3×10^5 cfu/ml in CD- and KD-based media. 1 ml bacterial suspension was pelleted and frozen at −80° C. for 1 hr. […] Absorbance at 405 nm denoting production of 3-carboxy-4-nitroaniline was measured every minute for 1 hr at 37° C. using an automated multimode plate reader (Biotek Synergy H1).

[5] = system: A. muciniphila; test: Cross-feeding in vitro assay, A. muciniphila growth; assay type: cell-based, Akkermansia muciniphila; conditions: A. muciniphila in CD agar exposed to P. merdae pre-treated with 500 uM GGsTop vs vehicle, 24 hours
Protocol: as §1

[6] = system: P. merdae; test: Cross-feeding in vitro assay, P. merdae viability after GGsTop pre-treatment; assay type: cell-based, Parabacteroides merdae; conditions: 500 uM GGsTop pre-treatment, 2 hours, 37° C., pilot experiments
Protocol: as §1

In the case of `COP(=O)(CCC(N)C(=O)O)Oc1cccc(CC(=O)O)c1` (stereo not drawn) [GGsTop, 3-[[(3-amino-3-carboxypropyl)methoxyphosphinyl]oxy]benzeneacetic acid], the “6-Hz seizure threshold (CC50)” value [1] is reported as “increases in seizure thresholds toward levels seen in SPF KD mice”, the “seizures per day (EEG)” value [2] is reported as “significant decrease in seizures per day” and the “fecal GGT activity signal” value [3] is reported as “eliminated the detected signals”. For the same compound, the “GGT activity in P. merdae” value [4] was “ablated”, the A. muciniphila growth [5] was “increased growth” and the P. merdae viability [6] was “no significant effect”.
